{
  "source": "paper PMC12082688",
  "about": "“Temporal Distribution of Imidacloprid and Its Metabolites in Laying Hens: An Evaluation of the Potential Impact on Food Safety” (Journal of Agricultural and Food Chemistry, 2025)",
  "key": {"[1]": {"assay": "Plasma concentration versus time profile after a single oral gavage dose, LC-MS/MS", "format": "in vivo, Hy-line brown hens", "settings": "for time until plasma concentration below the limit of quantitation: 1 mg/kg single oral gavage, LOQ 0.5 ng/mL; for Tmax: female, Hy-line brown, in vivo", "description": "(§1) Seventy-five, 61-week-old, Hy-line brown hens weighing 1.6–2.4 kg were housed in individual, 22” × 24” × 16” cages with nest box curtains and scratch pads, on two levels. Hens were acclimatized for 1 week on a 16-h light:8-h dark cycle. A wall exhaust fan maintained the temperature between 17–19 °C. A standard layer diet containing corn and soybean meal, 4.9% calcium and 16.5% protein was available ad libitum (Webberville Feed & Grain Co., Webberville, MI, USA). Water was available ad libitum. Hens were weighed and randomly assigned to one of three treatment groups (n = 5 hens/group) that received imidacloprid at 1 and 10% of a reported LD50 for chickens corresponding to 1 and 10 mg/kg of IMI or a placebo treatment (Lafeber Nutristart 1:3 in water; Lafeber Co., Cornell, Il, USA).[14] Birds were fasted overnight. Prior to gavage, crops were palpated to ensure that they were empty.\n(§2) Analytical grade (active) imidacloprid powder (ChemService, West Chester, PA, USA) was dissolved in ethanol (10% v/v), mixed with corn oil, and then further dissolved in Lafeber Nutristart (1:3 in water; Lafeber Co., Cornell, Il, USA) to obtain final concentrations of 0.8 or 0.08 mg/mL.[8],[14] Treatments were prepared on the morning of administration, protected from light, kept on ice, and mixed thoroughly prior to administration. The concentrations and purity of IMI were verified before the start of the trial. IMI was administered by oral gavage using a 60-cc syringe and a 10 Fr × 16 in. red rubber urethral feeding catheter. After each administration, the catheter was flushed with 5 mL of water. Birds received a similar volume of treatment or placebo (20–30 mL).\n(§3) Approximately 2–3 mL of blood was sampled from the brachial vein at 1, 2, 4, 24, 48, and 168 h postexposure, transferred into 2 mL EDTA tubes, sat at room temperature for 1–2 h, centrifuged at 1200g for 10 min, plasma was transferred into microcentrifuge tubes, and samples were kept at 4 °C until analysis within 1 week of study completion. Birds were humanely euthanized by cervical dislocation (n = 5 hens/treatment/time point). At 1, 4, 24, 48, and 168 h postexposure, approximately 1.0 g from the left pectoralis major, left quadriceps, left liver lobe, coelomic fat pad, spleen, right cranial and middle kidney lobes, and brain (cerebrum, optic lobes, cerebellum, brainstem) were collected, placed in Whirl-Pak sample bags (Nasco Sampling LLC, Madison, WI, USA), and kept at −20 °C until analysis. Whole eggs that were spontaneously laid or near completion in the shell gland were collected at 24 (n = 27), 48 (n = 24), 72 (n = 13), and 168 h (n = 12) after treatment and cracked in half, and yolk and albumen were kept in screw top specimen containers at −20 °C until analysis. […] Doses and time points were based on similar studies done in chickens[8] and Japanese Quail.[7] All animal procedures were approved by the Institutional Animal Care and Use Committee (IACUC) at MSU no. PROTO202300371.\nNeonicotinoids were extracted from 200 μL of plasma, which was added to a test tube with […] of 0.5 ng/mL ISTD in acetonitrile. The mixture was vortexed for 40 s until well-mixed and then centrifuged for 5 min at 3000g. The supernatant was removed and filtered through a 0.2 μm PTFE membrane filter into an autosampler vial for LC-MS/MS analysis.\nAnalysis was performed with a liquid chromatographic-tandem mass spectrometer, an AB Sciex 6500+ ESI-MS/MS (SCIEX, Framingham, MA, USA) interfaced to a Shimadzu LC (Shimadzu Corp, Kyoto, Japan). Chromatography was achieved using the Kinetex F5:2.6 μm (100 mm × 3 mm) column (Phenomenex, Torrance, CA, USA). The column temperature was maintained at 40 °C with a column heater. Injection volume was 10 μL. The mobile phase consisted of 0.1% formic acid in Milli-Q water (mobile phase A) and 0.1% formic acid in acetonitrile (mobile phase B) at a flow rate of 0.5 mL/min. […]"}, "[2]": {"assay": "Distribution of IMI and metabolites in tissues, eggs and feces after a single oral gavage dose, LC-MS/MS", "format": "in vivo", "settings": "for metabolite abundance in tissues: 1 and 10 mg/kg IMI single oral gavage, all sampled tissues; for metabolite concentrations in eggs versus regulatory thresholds: eggs within 24 h postexposure to IMI", "description": "as §1, §2, §3\nTissues were prepared for analysis by sectioning 0.5 g of homogeneous tissue (free of connective and vascular tissue) and placing it in a 7 mL Precellys bead tissue homogenization tube. Egg yolk and albumin from individual eggs were homogenized with an Omni International (Kennesaw, GA, USA) 125/TM125-11 hand-held homogenizer with a stainless steel 7 mm generator probe. Similar to tissues, 0.5 g of egg homogenate was placed in a 7 mL Precellys bead tissue homogenization tube. Two milliliters of acetonitrile containing 1 ng/mL of ISTD was added. Tissues were homogenized at room temperature with a Precellys Evolution Homogenizer (Bertin Technologies, Montigny-Le-Bretonneux, France): Speed–4500g, Cycle 2 × 20 s with a 20 s pause between cycles. The homogenized tissues and egg were centrifuged at 5400g for 10 min to pellet solid material at the bottom of the tube. 250 μL of the clear top layer from each tube was transferred to an autosampler vial for LC-MS/MS analysis. […]"}, "[3]": {"settings": "cited from earlier work"}, "[4]": {"assay": "IMI equivalents (sum of IMI and 6-chloropyridinyl moiety metabolites) in poultry products versus CFR/EFSA tolerance", "parameters": "species or system Hy-line brown hens", "settings": "in vivo", "excerpt": "The specific absorption, distribution, metabolism, and excretion profile of IMI in laying hens and the presence of IMI and its metabolites in eggs are unknown. Therefore, the primary goal of this study was to evaluate food safety in the context of IMI’s temporal distribution and metabolite profile. To achieve this, IMI and its 6-chloropyridinyl moiety-containing metabolites (IMI-urea, IMI-olefin, desnitro-IMI, 5-OH-IMI, and 6-chloronicotinic acid) were quantitatively measured in blood, tissue, feces, and eggs following a single subclinical dose over time. These concentrations were measured using a liquid chromatography tandem mass spectrometry (LC-MS/MS) method and compared with tolerances established in the Code of Federal Regulations (CFR) and Article 12 of the European Food Safety Authority (EFSA) Regulation No 396/2005.[12],[13]\nas §3\nTissues were prepared for analysis by sectioning 0.5 g of homogeneous tissue (free of connective and vascular tissue) and placing it in a 7 mL Precellys bead tissue homogenization tube. Egg yolk and albumin from individual eggs were homogenized with an Omni International (Kennesaw, GA, USA) 125/TM125-11 hand-held homogenizer with a stainless steel 7 mm generator probe. Similar to tissues, 0.5 g of egg homogenate was placed in a 7 mL Precellys bead tissue homogenization tube. Two milliliters of acetonitrile containing 1 ng/mL of ISTD was added. […]"}, "laying hens": {"system": "laying hens", "assay": "Response to treatment: clinical monitoring, post-mortem examination and daily egg production", "format": "in vivo", "settings": "1 or 10 mg/kg single oral gavage", "description": "as §1\nAnalytical grade (active) imidacloprid powder (ChemService, West Chester, PA, USA) was dissolved in ethanol (10% v/v), mixed with corn oil, and then further dissolved in Lafeber Nutristart (1:3 in water; Lafeber Co., Cornell, Il, USA) to obtain final concentrations of 0.8 or 0.08 mg/mL.[8],[14] Treatments were prepared on the morning of administration, protected from light, kept on ice, and mixed thoroughly prior to administration. […]\nBirds were closely monitored postgavage for any adverse reactions. […]"}, "birds": {"system": "birds", "parameters": "method as in PMID 32274821", "settings": "cited from earlier work"}, "layers": {"system": "layers", "settings": "cited from earlier work"}, "chickens": {"system": "chickens", "settings": "in vivo; cited from earlier work"}, "[5]": {"settings": "in vivo; cited from earlier work"}, "[6]": {"settings": "in vivo, po; cited from earlier work"}, "[7]": {"settings": "10 mg/kg single oral gavage, read-out: time of peak concentration in plasma"}, "[8]": {"settings": "domestic chickens, 15 days after the last exposure following daily exposure for 7 days"}},
  "note": "“Also recorded” adds a separate entry of the source. Read-outs that look alike come from different tables or passages of the source.",
  "data": [
    {"smiles": "O=[N+]([O-])/N=C1\\NCC(O)N1Cc1ccc(Cl)nc1", "note": "(stereo not shown) [5-OH-IMI, 5-hydroxyimidacloprid]", "values": [
      {"measurement": "time until plasma concentration below the limit of quantitation", "setting": "[1]", "result": "≤ 24", "unit": "h"},
      {"measurement": "Tmax", "setting": "[1]; [7]", "result": 4, "unit": "h"},
      {"measurement": "metabolite abundance in tissues", "setting": "[2]", "result": "metabolized predominantly to 5-OH-IMI"},
      {"measurement": "metabolite concentrations in eggs versus regulatory thresholds", "setting": "[2]", "result": "exceeding current regulatory thresholds"},
      {"measurement": "presence in feces, liver, muscle, spleen, kidney and brain", "setting": "[3]; [8]", "result": "detected"}
    ]},
    {"smiles": "O=C(O)c1ccc(O)nc1", "note": "[6-OH-NA, 6-hydroxy nicotinic acid]", "values": [
      {"measurement": "presence in fecal matter", "setting": "[2]; feces collected after IMI single oral gavage", "result": "evidence in fecal matter for the formation; also recorded: presence of 6-OH-NA in fecal matter collected at 24 and 48 h post treatment"}
    ]},
    {"smiles": "O=[N+]([O-])Nc1nccn1Cc1ccc(Cl)nc1", "note": "[IMI-olefin, imidacloprid-olefin]", "values": [
      {"measurement": "time until plasma concentration below the limit of quantitation", "setting": "[1]", "result": "≤ 24", "unit": "h"},
      {"measurement": "time of peak concentration in plasma", "setting": "[1]; 10 mg/kg single oral gavage", "result": 4, "unit": "h"},
      {"measurement": "metabolite abundance in tissues", "setting": "[2]", "result": "more abundant metabolite observed in most tissues except in the kidney where it was notably absent"},
      {"measurement": "metabolite concentrations in eggs versus regulatory thresholds", "setting": "[2]", "result": "exceeding current regulatory thresholds"},
      {"measurement": "presence in feces, liver, muscle, spleen, kidney and brain", "setting": "[3]; [8]", "result": "detected"}
    ]},
    {"smiles": "O=C1NCCN1Cc1ccc(Cl)nc1", "note": "[IMI-urea, imidacloprid urea]", "values": [
      {"measurement": "time of peak concentration in plasma", "setting": "[1]; 10 mg/kg single oral gavage", "result": 4, "unit": "h"},
      {"measurement": "presence of metabolite in sample types", "setting": "[2]; 10 mg/kg IMI single oral gavage", "result": "present in the 10 mg/kg treatment group for all sample types except in the liver"},
      {"measurement": "metabolite abundance in tissues", "setting": "[2]", "result": "equally abundant in kidney with 5-OH-IMI"},
      {"measurement": "metabolite concentrations in eggs versus regulatory thresholds", "setting": "[2]", "result": "exceeding current regulatory thresholds"}
    ]},
    {"smiles": "O=[N+]([O-])NC1=NCCN1Cc1ccc(Cl)nc1", "note": "[IMI]", "values": [
      {"measurement": "Tmax", "setting": "[1]; po, 1 mg/kg", "result": "≤ 1", "unit": "h"},
      {"measurement": "Tmax", "setting": "[1]; po, 10 mg/kg", "result": 4, "unit": "h"},
      {"measurement": "IMI equivalents in adipose tissue versus 50 ppb (50 ng/g) threshold", "setting": "[4]", "result": "no animal exceeded"},
      {"measurement": "IMI equivalents in brain, liver, spleen and kidney versus threshold (50 ng/g)", "setting": "[4]", "result": "surpassed the threshold for most animals"},
      {"measurement": "IMI equivalents in liver and spleen versus threshold (50 ng/g)", "setting": "[4]", "result": "remained in excess of the threshold for several animals"},
      {"measurement": "eggs with IMI equivalents exceeding the CFR regulatory threshold of 20 ppb (20 ng/g)", "setting": "[4]", "result": "6 of 10"},
      {"measurement": "gross lesions at post-mortem examination", "setting": "laying hens", "result": "no gross lesions were observed"},
      {"measurement": "clinical signs", "setting": "birds; 10 mg/kg IMI administration", "result": "moderate sedation occurred within minutes"},
      {"measurement": "clinical signs", "setting": "birds; birds given 1 mg/kg", "result": "no outward clinical signs"},
      {"measurement": "LD50", "setting": "layers", "result": 104.1, "unit": "mg/kg"},
      {"measurement": "adjusted effective dose (ED50) for neurologic signs", "setting": "chickens", "result": 11.2, "unit": "mg/kg/day"},
      {"measurement": "time of absorption into the bloodstream", "setting": "[5]", "result": "≤ 1", "unit": "h"},
      {"measurement": "time of excretion in feces", "setting": "[5]", "result": "≤ 24", "unit": "h"},
      {"measurement": "residues in liver, pectoral muscle, brain and kidney", "setting": "[6]", "result": "detected"},
      {"measurement": "presence in feces, liver, muscle, spleen, kidney and brain", "setting": "[3]; in vivo", "result": "detected"}
    ]},
    {"smiles": "N=C1NCCN1Cc1ccc(Cl)nc1", "note": "[desnitro-IMI, desnitro imidacloprid]", "values": [
      {"measurement": "Tmax", "setting": "[1]; [7]", "result": 4, "unit": "h"}
    ]}
  ]
}
